Test results from patent US11202757B2, “Dry powder compositions for intranasal delivery” (Formulex Pharma Innovations Ltd., priority 2017, dated 2021).
Structures can show the parent of a compound that is named as a salt.

Assay: Particle size analysis (Malvern laser diffraction)
Type: physicochemical
Settings: for size range of the active agent particle population: laser diffraction, active agent population of the composition
Method: (§1) The spray-drying process was carried out using the Mini Spray Dryer B-290 of Büchi Labortechnik AG. A magnetic stirrer (Fried Electric) was placed under the receiver (receiving chamber), a magnetic bar of appropriate size was inserted into the receiver, and then the diluent was added. […] Quantification was performed using HPLC and a Dionex HPLC instrument. A FEI Quanta-200 Scanning Electron Microscope (SEM) equipped with an Everhart-Thornley Detector was used to obtain the images of the spray-dried powder. The accelerating voltage of 20 kV was applied to provide magnification from 250 to 10,000 times. In addition, an X-ray Element Analysis Detector (Link ISIS, Oxford Instruments, GB) was used to determine the drug and particle identity and their distribution throughout DPI. Particle size was measured using the Malvern Mastersizer 3000 series based on the Light Diffraction method.
as §1, with “England)” for “GB)”

[1] = estimated in the range of 0-40 μm

| Compound | size range of the active agent particle population | D(10) of sumatriptan succinate alone [1] [μm] | D(50) of sumatriptan succinate alone [1] [μm] | D(90) of sumatriptan succinate alone [1] [μm] | D(99) of sumatriptan succinate alone [1] [μm] |
| --- | --- | --- | --- | --- | --- |
| CC(=O)Nc1ccc(O)cc1 [paracetamol] | 2-30 μm | – | – | – | – |
| COc1ccc2c3c1O[C@H]1C(=O)CC[C@@]4(O)[C@@H](C2)N(C)CC[C@]314.Cl [oxycodone hydrochloride] | 3-30 μm | – | – | – | – |
| C=CCN1CC[C@]23c4c5ccc(O)c4O[C@H]2C(=O)CC[C@@]3(O)[C@H]1C5 [naloxone hydrochloride] | 5-30 μm | – | – | – | – |
| CNS(=O)(=O)Cc1ccc2[nH]cc(CCN(C)C)c2c1 [sumatriptan succinate] | 5-25 μm | 5.2 | 11.2 | 20.1 | 27.1 |
| insulin-sodium chloride: small spherical particles of insulin-sodium chloride in the insulin composition | 5-35 μm | – | – | – | – |
